# Legend:
# [1] = Cytotoxicity against human HepG2 cells after 72 hrs by MTT assay; assay type: cell-based
# [2] = Selectivity index, ratio of CC50 for human HepG2 cells to IC50 for Plasmodium falciparum W2; assay type: functional
# Plasmodium falciparum = test: Antiplasmodial activity against chloroquine-, pyrimethamine- and proguanil-resistant Plasmodium falciparum K1 infected in human erythrocytes after 72 hrs by SYBR Green I fluorescence-based method; assay type: functional, organism-based; conditions: K1, 72 h
# [3] = Selectivity index, ratio of CC50 for human HepG2 cells to IC50 for chloroquine-, pyrimethamine- and proguanil-resistant Plasmodium falciparum K1 infected in human erythrocytes; assay type: functional
SMILES,CC50 at 72 h [1],Ratio CC50/IC50 [2],IC50 (Plasmodium falciparum),Ratio CC50/IC50 [3]
ClC(Cl)(Cl)c1nc(-c2ccccc2)c2ccccc2n1,> 125 µM,>15.6,–,–
ClC(Cl)(Cl)c1nccc2ccccc12,180 µM,–,8 µM,22.5
ClC(Cl)(Cl)c1ncnc2ccccc12,> 500 µM,–,> 50 µM,–
ClC(Cl)(Cl)c1ncc2ccccc2n1,61 µM,–,17.6 µM,3.5
Cc1ncc2ccccc2n1,350 µM,–,> 50 µM,<7
ClC(Cl)(Cl)c1cnc2ccccc2n1,3.1 µM,–,1.5 µM,2.1
Cc1cnc2ccccc2n1,> 500 µM,–,> 50 µM,–
ClC(Cl)c1cnc2ccccc2n1,19.3 µM,–,12.8 µM,1.5
FC(F)(F)c1cnc2ccccc2n1,> 500 µM,–,> 50 µM,–
ClC(Cl)(Cl)c1nc2ccccc2nc1-c1ccccc1,3.5 µM,–,0.2 µM,17.5
ClC(Cl)(Cl)c1nc2ccccc2n2cccc12,41.2 µM,–,1.5 µM,27.5
Fc1ccc2c(c1)nc(C(Cl)(Cl)Cl)c1cccn12,> 15 µM,–,1.7 µM,>8.8
Clc1ccc2c(c1)nc(C(Cl)(Cl)Cl)c1cccn12,9.8 µM,–,1.6 µM,6.1
ClC(Cl)(Cl)c1nc2cc(I)ccc2n2cccc12,6.6 µM,–,1.2 µM,5.5
Cc1ccc2c(c1)nc(C(Cl)(Cl)Cl)c1cccn12,53 µM,–,2.4 µM,22.1
COc1ccc2c(c1)nc(C(Cl)(Cl)Cl)c1cccn12,35 µM,–,4.2 µM,8.3
N#Cc1ccc2c(c1)nc(C(Cl)(Cl)Cl)c1cccn12,17 µM,–,1.5 µM,11.3
O=C(O)c1ccc2c(c1)nc(C(Cl)(Cl)Cl)c1cccn12,106 µM,–,22 µM,<10.6
N/C(=N/O)c1ccc2c(c1)nc(C(Cl)(Cl)Cl)c1cccn12,> 15 µM,–,1.75 µM,>8.6
Cc1nc2ccccc2n2cccc12,120 µM,–,> 50 µM,<2.4
Cc1ccc2c(c1)nc(C)c1cccn12,57 µM,–,> 50 µM,<4.7
Cc1nc2cc(C#N)ccc2n2cccc12,> 31.5 µM,–,> 50 µM,–
FC(F)(F)c1nc2ccccc2n2cccc12,160 µM,–,> 50 µM,<3.2
Cc1nccc2ccccc12,179 µM,–,> 50 µM,<3.6
C[C@H]1c2cccc(O)c2C(=O)C2=C(O)[C@]3(O)C(=O)C(C(N)=O)=C(O)[C@@H](N(C)C)[C@@H]3[C@@H](O)[C@@H]21.O [DOXYCYCLINE],–,–,6 µM,3.3
Cc1ccc2ccccc2n1 [QUINALDINE],> 500 µM,–,> 50 µM,–
c1ccc2nccnc2c1 [QUINOXALINE],> 500 µM,–,> 50 µM,–
